In patent publication US20260226493A1, “HERBICIDE RESISTANT PLANTS” (SYNGENTA CROP PROTECTION AG, priority 2023, published 2026):

Tests used:
Assay type in all cases: biochemical
Quercus robur BioDA = test: BioDA enzyme activity with DMSO or herbicide in vitro; conditions: 200 μM; Quercus robur BioDAΔMTP
Description: (§1) A pet-24 plasmid containing a DNA sequence encoding each identified variant mutant of BIO3-BIO1 derived from Arabidopsis thaliana from example 5 above, as shown in Table 13 below and as shown in full in SEQ ID NOs: 15 to 155, codon-optimised for expression in E. coli, with an N-terminal 6×His-tag and thrombin cleavage site and under control of a T7 promoter, and was synthesised by Twist Bioscience, in a similar manner to SEQ ID NO:311. These plasmids were then expressed in E. coli BL21 (DE3) bioA with 50 μg/mL kanamycin and 25 μg/mL chloramphenicol selection. Overnight cultures grown at 37° C. were used to inoculate 8×500 mL AIM in shake flasks at a ratio of 1:100. Cultures were grown at 37° C., 200 rpm for 3.5 hours and then overnight at 20° C. Cells were harvested by centrifugation for 30 minutes at 10 000 g. Cells were stored at −80° C. until extraction. 30 g of cell pellet from was thawed in 120 mL of IMAC buffer A (20 mM HEPES pH7.5, 25 mM imidazole, 500 mM sodium chloride, 0.15 mM pyridoxal phosphate, 0.5 mM TCEP, 1× complete Protease Inhibitor Tablet (Roche)). The resuspension was passed through a cell disrupter at 18 000 PSI and centrifuged at 50 000 g for 25 minutes at 4° C. The His-tagged BIO3-BIO1 protein was purified from the extract supernatant on an AKTA avant chromatography system (Cytiva) using a HisTrap FF column and eluted in IMAC buffer B ((20 mM HEPES pH7.5, 500 mM imidazole, 500 mM sodium chloride, 0.15 mM pyridoxal phosphate, 0.5 mM TCEP) followed by SEC using a HiLoad 26/60 Superdex200 column in SEC buffer (25 mM HEPES pH7.5, 150 mM sodium chloride, 0.15 mM pyridoxal phosphate, 0.5 mM TCEP). Protein concentration was measured and calculated using the absorbance at 280 nm. Extracts were diluted 1 in 4 and 10 uL was analysed by SDS PAGE.
(§2) To measure BIO3-BIO1 mutant enzyme activity in the presence of herbicide, herbicides were incubated with 20 μL of enzyme mix (100 mM EPPS pH 8.6, 0.1 mM pyridoxal phosphate, 0.1 mg/mL BSA, 50 nM BIO3-BIO1 enzyme) for 10 minutes at 20° C. in a well of a 96-well half-area black plate, followed by the addition of 20 μL of substrate mix (final concentration of 100 mM EPPS pH 8.6, 0.1 mM pyridoxal phosphate, 0.1 mg/mL BSA, 100 μM spermidine, 20 μM KAPA, 100 mM NaCO3) and further incubation for 75 minutes at 20° C. The reaction was terminated by the addition of 50 μL of derivatisation mix (final concentration of 250 mM borate NaOH pH 9.4, 3.6 mM o-phthalaldehyde, 7 mM β-mercaptoethanol, 17% (v/v) ethanol, 3.6% (v/v) methanol). The fluorescent product produced by the reaction of DAPA with o-phthalaldehyde and 7 mM β-mercaptoethanol was measured at 470 nm after excitation at 410 nm. The percentage inhibition was calculated as the activity in the presence of one of three concentrations of each herbicide compound A to M (note that the compounds labelled as A to M are identified hereinabove in the relevant section of the description) as a percentage of the activity in DMSO (Table 12 and 13). The percentage activity versus WT was also calculated and is shown in Table 13 and 14 (NT indicates mutation not tested in table 13, note that these mutations are tested at different compound concentrations for compounds L, M and C, and the results are shown in table 14).
(§3) The activity of various wild-type BioDA and variant enzymes was also tested when treated with DMSO or herbicide in vitro.
(§4) Protein of Schizosaccharomyces japonicus BioDA (SEQ ID NO:13), Nannochloropsis gaditana BioDA (SEQ ID NO:3), Selaginella moellendorffii BioDA (SEQ ID NO:319), Quercus robur BioDA (SEQ ID NOA11), Ostreococcus tauri BioDA (SEQ ID NO:9), and the variants of Ostreococcus tauri BioDA A374D, F332A and P407A (SEQ ID Nos:321-323) was prepared using the method in Example 6. BioDA enzyme activity in the presence of herbicide or DMSO in vitro for each of the proteins was assayed according to the enzyme assay method above. The results are shown in Table 26 provided below in the “TABLES” section.

Ostreococcus tauri BioDA = test: as above; conditions: 200 μM; Ostreococcus tauri BioDAΔMTP
Description: as §1, §2, §3, §4

[1] = system: Nannochloropsis gaditana BioDA; test: as above; conditions: 200 μM
Description: as §1, §2, §3, §4

[2] = system: Selaginella moellendorffii BioDA; test: as above; conditions: 200 μM; Selaginella moellendorcffii BioDAΔMTP
Description: as §1, §2, §3, §4

[3] = system: Schizosaccharomyces japonicus BioDA; test: as above; conditions: 200 μM
Description: as §1, §2, §3, §4

[4] = system: Streptomyces viridochromogenes BioA; test: BioA enzyme activity with DMSO or herbicide in vitro; conditions: 200 μM, SAM in substrate mix
Description: as §1, §2
(§5) Protein of Escherichia coli BioA (SEQ ID NO:159), Pantoea ananatis BioA (SEQ ID NO:167), Streptomyces viridochromogenes BioA (SEQ ID NO:170), Cryptosporidium andersoni BioA (SEQ ID NO:160), Stenotrophomonas maltophilia BioA (SEQ ID NO:171), Chroococcidiopsis BioA (SEQ ID NO:184), Pedobacter hartonius BioA (SEQ ID NO:181), Chitinophaga filiformis BioA (SEQ ID NO:180), Tenacibaculum adriaticum BioA (SEQ ID NO:185) and Bacillus subtilis BioA (SEQ ID NO:166) was prepared using the method in Example 6. BioA enzyme activity in the presence of herbicide or DMSO in vitro for each of the proteins was assayed according to the enzyme assay method in Example 6, except in some reactions spermidine was replaced with 2 mM S-Adenosyl methionine.

Pantoea ananatis BioA = test: as above; conditions: 200 μM, SAM in substrate mix
Description: as §1, §2, §5

Bacillus subtilis BioA = test: as above; conditions: 200 μM, spermidine in substrate mix
Description: as §1, §2, §5

Escherichia coli BioA = target: T1, Escherichia coli BioA (Escherichia coli, UniProt P12995); test: as above; conditions: SAM in substrate mix, read-out: % Inhibition relative to DMSO treatment
T1 construct: 6xHis-tag (N); thrombin cleavage site (N); made in house; host or cells: E. coli BL21 (DE3) bioA
T1 sequence (P12995 whole entry): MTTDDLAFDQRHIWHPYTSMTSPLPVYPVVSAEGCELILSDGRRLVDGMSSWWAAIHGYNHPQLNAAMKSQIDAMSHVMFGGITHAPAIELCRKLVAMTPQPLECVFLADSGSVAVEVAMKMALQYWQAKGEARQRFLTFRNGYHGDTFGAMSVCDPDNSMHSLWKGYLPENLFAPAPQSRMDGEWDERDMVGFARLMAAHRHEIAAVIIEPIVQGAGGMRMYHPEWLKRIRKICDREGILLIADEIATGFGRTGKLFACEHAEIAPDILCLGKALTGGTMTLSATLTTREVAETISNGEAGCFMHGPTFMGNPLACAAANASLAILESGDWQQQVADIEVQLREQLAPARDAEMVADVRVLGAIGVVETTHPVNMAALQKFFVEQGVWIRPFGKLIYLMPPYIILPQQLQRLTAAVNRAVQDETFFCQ
Description: as §1, §2, §5

[5] = system: Chitinophaga filiformis BioA; test: as above; conditions: 200 μM, spermidine in substrate mix
Description: as §1, §2, §5

Compound: CC(O)C(N)CCCCC(=O)O.Cl (stereo not drawn) [Compound B, [5-carboxy-1-(1-hydroxyethyl)pentyl]ammonium chloride]
- % Inhibition relative to DMSO treatment (Quercus robur BioDA): 93%
- % Inhibition relative to DMSO treatment (Ostreococcus tauri BioDA): 62%
- % Inhibition relative to DMSO treatment [1]: 92%
- % Inhibition relative to DMSO treatment [2]: 64%
- % Inhibition relative to DMSO treatment [3]: 70%
- % Inhibition relative to DMSO treatment [4]: 0%
- % Inhibition relative to DMSO treatment (Pantoea ananatis BioA): 15%
- % Inhibition relative to DMSO treatment (Bacillus subtilis BioA): 0%
- inhibition at 31 µM (Escherichia coli BioA; 31 μM): 4%
- inhibition at 200 µM (Escherichia coli BioA; 200 μM): 9%
- inhibition at 500 µM (Escherichia coli BioA; 500 μM): 23%
- % Inhibition relative to DMSO treatment [5]: 12%
